The source of these data is ChEMBL document CHEMBL5154646, “Structure-guided optimization of 1H-imidazole-2-carboxylic acid derivatives affording potent VIM-Type metallo-β-lactamase inhibitors” (Eur J Med Chem, 2022).

The test system of test [1] is Escherichia coli. The test can be described thus: Potentiation of meropenem-induced antibacterial activity against Escherichia coli C1580 expressing VIM-2 assessed as fold reduction in meropenem MIC at 10 ug/ml incubated for 18 to 20 hrs by CLSI based broth microtiter dilution method. It is filed as functional. The note with it: dose 10 µg/ml; time 18-20 hrs.
In test [2] the test system is Escherichia coli. As to the kind of experiment: Potentiation of meropenem-induced antibacterial activity against Escherichia coli C1541 expressing IMP-1 assessed as fold reduction in meropenem MIC at 10 ug/ml incubated for 18 to 20 hrs by CLSI based broth microtiter dilution method. It is filed as functional. As to conditions: dose 10 µg/ml; time 18-20 hrs.
The nature of test [3]: Inhibition of bacterial VIM-2 (27 to 266 residues) expressed in Escherichia coli Transetta (DE3) using FC-5 as substrate preincubated with enzyme for 10 mins followed by substrate addition by fluorescence based analysis. On the set-up: species or system Bacteria.
For test [4], the system named is Escherichia coli. As to the kind of experiment: Potentiation of meropenem-induced antibacterial activity against Escherichia coli C1580 expressing VIM-2 assessed as meropenem MIC at 10 ug/ml incubated for 18 to 20 hrs by CLSI based broth microtiter dilution method (reference value: 32 ug/ml). The test is classed as functional. The note with it: dose 10 µg/ml, time 18-20 hrs.

A short description of test [5]: Inhibition of bacterial recombinant full length C-terminal-TEV-His6-tagged VIM-1 expressed in Escherichia coli Transetta using FC-5 as substrate preincubated with enzyme for 10 mins followed by substrate addition by fluorescence based analysis. Set-up: species or system Bacteria.
Test [6] can be described thus: Inhibition of bacterial recombinant full length N-terminal-TEV-His6-tagged VIM-5 expressed in Escherichia coli Transetta using FC-5 as substrate preincubated with enzyme for 10 mins followed by substrate addition by fluorescence based analysis. On the set-up: species or system Bacteria.
A short description of test [7]: Inhibition of bacterial NDM-1 (1 to 270 residues) expressed in Escherichia coli Transetta (DE3) using FC-5 as substrate preincubated with enzyme for 10 mins followed by substrate addition by fluorescence based analysis. Set-up: species or system Bacteria.
Test [8] can be described thus: Inhibition of bacterial IMP-1 (1 to 246 residues) expressed in Escherichia coli Transetta (DE3) using FC-5 as substrate preincubated with enzyme for 10 mins followed by substrate addition by fluorescence based analysis. Set-up: species or system Bacteria.
For test [9], the system named is Escherichia coli. As to the kind of experiment: Potentiation of meropenem-induced antibacterial activity against Escherichia coli C1541 expressing VIM-2 assessed as meropenem MIC at 10 ug/ml incubated for 18 to 20 hrs by CLSI based broth microtiter dilution method (reference value: 16 ug/ml). It is filed as functional. The note with it: dose 10 µg/ml, time 18-20 hrs.

In test [10] the test system is Escherichia coli. As to the kind of experiment: Potentiation of meropenem-induced antibacterial activity against Escherichia coli C1542 expressing VIM-2 assessed as meropenem MIC at 10 ug/ml incubated for 18 to 20 hrs by CLSI based broth microtiter dilution method (reference value: 16 ug/ml). It is filed as functional. As to conditions: dose 10 µg/ml, time 18-20 hrs.

The subject of test [11] is Escherichia coli. As to the kind of experiment: Potentiation of meropenem-induced antibacterial activity against Escherichia coli C1541 expressing IMP-1 assessed as meropenem MIC at 10 ug/ml incubated for 18 to 20 hrs by broth microtiter dilution method (reference value: 32 ug/ml). The test is classed as functional. The note with it: dose 10 µg/ml, time 18-20 hrs.
Test [12] relates to Pseudomonas aeruginosa. As to the kind of experiment: Potentiation of meropenem-induced antibacterial activity against Pseudomonas aeruginosa W35 expressing VIM-2 assessed as meropenem MIC at 100 ug/ml incubated for 18 to 20 hrs in presence of meropenem by CLSI based broth microtiter dilution method (reference value: 64 ug/ml). The test is classed as functional. As to conditions: dose 100 µg/ml, time 18-20 hrs.

In test [13] the test system is Pseudomonas aeruginosa. As to the kind of experiment: Potentiation of meropenem-induced antibacterial activity against Pseudomonas aeruginosa 5621 expressing VIM-2 assessed as meropenem MIC at 100 ug/ml incubated for 18 to 20 hrs in presence of meropenem by CLSI based broth microtiter dilution method (reference value: 64 ug/ml). The note with it: dose 100 µg/ml, time 18-20 hrs. It is filed as functional.

The subject of test [14] is Escherichia coli. The test can be described thus: Potentiation of meropenem-induced antibacterial activity against Escherichia coli C1541 expressing VIM-2 assessed as fold reduction in meropenem MIC at 10 ug/ml incubated for 18 to 20 hrs by CLSI based broth microtiter dilution method. It is filed as functional. The note with it: dose 10 µg/ml; time 18-20 hrs.
Test [15] concerns Pseudomonas aeruginosa. As to the kind of experiment: Potentiation of meropenem-induced antibacterial activity against Pseudomonas aeruginosa 5621 expressing VIM-2 assessed as fold reduction in meropenem MIC at 100 ug/ml incubated for 18 to 20 hrs by CLSI based broth microtiter dilution method. The test is classed as functional. The note with it: dose 100 µg/ml; time 18-20 hrs.

Test [16] concerns Escherichia coli. The test can be described thus: Potentiation of meropenem-induced antibacterial activity against Escherichia coli C1542 expressing VIM-2 assessed as fold reduction in meropenem MIC at 10 ug/ml incubated for 18 to 20 hrs by CLSI based broth microtiter dilution method. The test is classed as functional. The note with it: dose 10 µg/ml; time 18-20 hrs.
The test system of test [17] is Pseudomonas aeruginosa. As to the kind of experiment: Potentiation of meropenem-induced antibacterial activity against Pseudomonas aeruginosa W35 expressing VIM-2 assessed as fold reduction in meropenem MIC at 100 ug/ml incubated for 18 to 20 hrs by CLSI based broth microtiter dilution method. The test is classed as functional. The note with it: dose 100 µg/ml; time 18-20 hrs.

Turning to `O=C(O)c1nccn1Cc1cc(Br)cs1`, the “fold change (FC)” value in the test with Escherichia coli [1] amounted to 8; in the test on Escherichia coli [2], 1; in the test with Escherichia coli [14], 8; in the test with Pseudomonas aeruginosa [15], 1; in the test on Escherichia coli [16], 4; with Pseudomonas aeruginosa [17], 2. The IC50 is 0.43 µM in test [3]; 24.9 µM in test [5]; 2.47 µM in [6]; 111 µM in test [7]; 20.3 µM in test [8]. The MIC amounted to 4 µg/mL with Escherichia coli [4]; 2 µg/mL in the test on Escherichia coli [9]; 4 µg/mL with Escherichia coli [10]; 32 µg/mL in the test on Escherichia coli [11]; 32 µg/mL with Pseudomonas aeruginosa [12]; 64 µg/mL in the test on Pseudomonas aeruginosa [13].

Regarding `N#Cc1ccc(Cn2ccnc2C(=O)O)cc1`, the “fold change (FC)” value is on record as 32 in the test on Escherichia coli [1]; 1 in the test with Escherichia coli [2]; >64 in the test with Escherichia coli [14]; 1 in the test on Pseudomonas aeruginosa [15]; >64 in the test with Escherichia coli [16]; 2 in the test with Pseudomonas aeruginosa [17]. Besides, the IC50 in test [3] is 0.29 µM; in test [5] it was 8.69 µM; in test [6], 0.12 µM; in test [7], 227 µM; in test [8], 30.1 µM. Besides, the minimal inhibitory concentration (MIC) in the test with Escherichia coli [4] was 1 µg/mL; with Escherichia coli [9] it was < 0.25 µg/mL; in the test with Escherichia coli [10], < 0.25 µg/mL; in the test with Escherichia coli [11] it was 32 µg/mL; in the test with Pseudomonas aeruginosa [12], 32 µg/mL; with Pseudomonas aeruginosa [13], 64 µg/mL.

Turning to `Nc1nc2c(Cn3ccnc3C(=O)O)cccc2s1`, the “fold change (FC)” value is listed as 32 with Escherichia coli [1]; 1 with Escherichia coli [2]; 32 with Escherichia coli [14]; 1 in the test with Pseudomonas aeruginosa [15]; >64 in the test on Escherichia coli [16]; 1 in the test on Pseudomonas aeruginosa [17]. Besides, the IC50 in test [3] was 0.16 µM; in test [5], 1.89 µM; in test [6] it was 1.04 µM; in [7] it was 131 µM; in test [8] it was 217 µM. For the same molecule, the MIC is 1 µg/mL in the test with Escherichia coli [4]; 0.5 µg/mL with Escherichia coli [9]; < 0.25 µg/mL in the test with Escherichia coli [10]; 32 µg/mL in the test on Escherichia coli [11]; 64 µg/mL in the test on Pseudomonas aeruginosa [12]; 64 µg/mL with Pseudomonas aeruginosa [13].

Turning to `Cc1cnc(C(=O)O)n1Cc1ccccc1`, the “fold change (FC)” value with Escherichia coli [1] is reported as 32; in the test on Escherichia coli [2], 1; in the test on Escherichia coli [14], >64; in the test with Pseudomonas aeruginosa [15] it was 2; in the test on Escherichia coli [16], 32; in the test on Pseudomonas aeruginosa [17], 4. Further, the IC50 in test [3] stood at 0.48 µM; in test [5], 3.18 µM; in test [6], 2.2 µM; in test [7], 29.7 µM; in test [8] it was 86.5 µM. Besides, the MIC was 1 µg/mL in the test on Escherichia coli [4]; < 0.25 µg/mL in the test with Escherichia coli [9]; 0.5 µg/mL in the test on Escherichia coli [10]; 32 µg/mL in the test on Escherichia coli [11]; 16 µg/mL with Pseudomonas aeruginosa [12]; 32 µg/mL in the test on Pseudomonas aeruginosa [13].

Turning to `O=C(O)c1nccn1Cc1ccc(O)cc1`, the “fold change (FC)” value with Escherichia coli [1] is 8; in the test on Escherichia coli [2] it was 1; with Escherichia coli [14] it was 16; in the test with Pseudomonas aeruginosa [15] it was 1; in the test on Escherichia coli [16] it was >64; in the test on Pseudomonas aeruginosa [17] it was 4. For the same molecule, the IC50 in test [3] came to 0.17 µM; in test [5], 5.04 µM; in test [6] it was 1.12 µM; in test [7], 118 µM; in test [8], 9.55 µM. Besides, the MIC in the test on Escherichia coli [4] is 4 µg/mL; with Escherichia coli [9], 1 µg/mL; in the test on Escherichia coli [10], < 0.25 µg/mL; in the test with Escherichia coli [11], 32 µg/mL; in the test on Pseudomonas aeruginosa [12] it was 16 µg/mL; with Pseudomonas aeruginosa [13] it was 64 µg/mL.

What is called IC50 is the concentration needed to halve the response being measured. In general, MIC refers to the least concentration at which growth counts as inhibited.
